PubChem BioAssay (NCI)
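Five compound concentrations were applied to cells in 96-well plates for 48 hours; endpoints were derived by simple linear interpolation of the resulting dose-response curve. Here, GI50 denotes the concentration required for 50% inhibition of growth. TGI is the concentration that stops growth completely.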

Columns and labels:
Test in all cases: DTP human tumour cell line panel, 48 h
[1] = tested on: 786-0 renal
[2] = tested on: A498 renal
[3] = tested on: A549 NSCLC
[4] = tested on: ACHN renal
[5] = tested on: BT-549 breast
[6] = tested on: CAKI-1 renal
[7] = tested on: CCRF-CEM leukemia
[8] = tested on: COLO 205 colon
[9] = tested on: DU-145 prostate
[10] = tested on: EKVX NSCLC
[11] = tested on: HCC-2998 colon
[12] = tested on: HCT-116 colon
[13] = tested on: HCT-15 colon
[14] = tested on: HL-60(TB) leukemia
[15] = tested on: HOP-62 NSCLC
[16] = tested on: HOP-92 NSCLC
[17] = tested on: HS 578T breast
[18] = tested on: HT29 colon
[19] = tested on: IGROV1 ovarian
[20] = tested on: K-562 leukemia
[21] = tested on: KM12 colon
[22] = tested on: LOX IMVI melanoma
[23] = tested on: M14 melanoma
[24] = tested on: MALME-3M melanoma
[25] = tested on: MCF7 breast
[26] = tested on: MDA-MB-231 breast
[27] = tested on: MDA-MB-435
[28] = tested on: MOLT-4 leukemia
[29] = tested on: NCI-H226 lung
[30] = tested on: NCI-H23 lung
[31] = tested on: NCI-H460 lung
[32] = tested on: NCI-H522 lung
[33] = tested on: NCI/ADR-RES ovarian
[34] = tested on: OVCAR-3 ovarian
[35] = tested on: OVCAR-4 ovarian
[36] = tested on: OVCAR-5 ovarian
[37] = tested on: OVCAR-8 ovarian
[38] = tested on: PC-3 prostate
[39] = tested on: RPMI-8226 leukemia
[40] = tested on: RXF 393 renal
[41] = tested on: SF-268 CNS
[42] = tested on: SF-295 CNS
[43] = tested on: SF-539 CNS
[44] = tested on: SK-MEL-2 melanoma
[45] = tested on: SK-MEL-28 melanoma
[46] = tested on: SK-MEL-5 melanoma
[47] = tested on: SK-OV-3 ovarian
[48] = tested on: SN12C renal
[49] = tested on: SNB-19 CNS
[50] = tested on: SNB-75 CNS
[51] = tested on: SR leukemia
[52] = tested on: SW-620 colon
[53] = tested on: T-47D breast
[54] = tested on: TK-10 renal
[55] = tested on: U251 CNS
[56] = tested on: UACC-257 melanoma
[57] = tested on: UACC-62 melanoma
[58] = tested on: UO-31 renal

## CCC(=O)Nc1ccc(C)c(-c2ccc(C(=O)NCC3CC3)cc2)c1
[1]
  GI50: > 25 µM
  TGI: > 25 µM
[2]
  GI50: > 25 µM
  TGI: > 25 µM
[3]
  GI50: > 25 µM
  TGI: > 25 µM
[4]
  GI50: > 25 µM
  TGI: > 25 µM
[5]
  GI50: > 25 µM
  TGI: > 25 µM
[6]
  GI50: > 25 µM
  TGI: > 25 µM
[7]
  GI50: > 25 µM
  TGI: > 25 µM
[8]
  GI50: > 25 µM
  TGI: > 25 µM
[9]
  GI50: > 25 µM
  TGI: > 25 µM
[10]
  GI50: > 25 µM
  TGI: > 25 µM
[11]
  GI50: > 25 µM
  TGI: > 25 µM
[12]
  GI50: > 25 µM
  TGI: > 25 µM
[13]
  GI50: > 25 µM
  TGI: > 25 µM
[14]
  GI50: > 25 µM
  TGI: > 25 µM
[15]
  GI50: > 25 µM
  TGI: > 25 µM
[16]
  GI50: > 25 µM
  TGI: > 25 µM
[17]
  GI50: > 25 µM
  TGI: > 25 µM
[18]
  GI50: > 25 µM
  TGI: > 25 µM
[19]
  GI50: > 25 µM
  TGI: > 25 µM
[20]
  GI50: > 25 µM
  TGI: > 25 µM
[21]
  GI50: > 25 µM
  TGI: > 25 µM
[22]
  GI50: > 25 µM
  TGI: > 25 µM
[23]
  GI50: > 25 µM
  TGI: > 25 µM
[24]
  GI50: > 25 µM
  TGI: > 25 µM
[25]
  GI50: > 25 µM
  TGI: > 25 µM
[26]
  GI50: > 25 µM
  TGI: > 25 µM
[27]
  GI50: > 25 µM
  TGI: > 25 µM
[28]
  GI50: > 25 µM
  TGI: > 25 µM
[29]
  GI50: > 25 µM
  TGI: > 25 µM
[30]
  GI50: > 25 µM
  TGI: > 25 µM
[31]
  GI50: > 25 µM
  TGI: > 25 µM
[32]
  GI50: > 25 µM
  TGI: > 25 µM
[33]
  GI50: > 25 µM
  TGI: > 25 µM
[34]
  GI50: > 25 µM
  TGI: > 25 µM
[35]
  GI50: > 24.1 µM
  TGI: > 25 µM
[36]
  GI50: > 25 µM
  TGI: > 25 µM
[37]
  GI50: > 25 µM
  TGI: > 25 µM
[38]
  GI50: > 25 µM
  TGI: > 25 µM
[39]
  GI50: > 25 µM
  TGI: > 25 µM
[40]
  GI50: > 25 µM
  TGI: > 25 µM
[41]
  GI50: > 25 µM
  TGI: > 25 µM
[42]
  GI50: > 25 µM
  TGI: > 25 µM
[43]
  GI50: > 25 µM
  TGI: > 25 µM
[44]
  GI50: > 25 µM
  TGI: > 25 µM
[45]
  GI50: > 25 µM
  TGI: > 25 µM
[46]
  GI50: > 25 µM
  TGI: > 25 µM
[47]
  GI50: > 25 µM
  TGI: > 25 µM
[48]
  GI50: > 25 µM
  TGI: > 25 µM
[49]
  GI50: > 25 µM
  TGI: > 25 µM
[50]
  GI50: > 25 µM
  TGI: > 25 µM
[51]
  GI50: > 25 µM
  TGI: > 25 µM
[52]
  GI50: > 25 µM
  TGI: > 25 µM
[53]
  GI50: 14.6 µM
  TGI: > 25 µM
[54]
  GI50: > 25 µM
  TGI: > 25 µM
[55]
  GI50: > 25 µM
  TGI: > 25 µM
[56]
  GI50: > 25 µM
  TGI: > 25 µM
[57]
  GI50: > 25 µM
  TGI: > 25 µM
[58]
  GI50: > 25 µM
  TGI: > 25 µM
